Reference: PubChem BioAssay (NCI)
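Five concentrations, 48 hours, 96-well plates. Definition used: TGI = concentration required for complete inhibition of growth.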

Assays:
Assay in all cases: growth of human tumour cells (NCI), 48 h
UACC-62 melanoma = test system: UACC-62 melanoma
LOX IMVI melanoma = test system: LOX IMVI melanoma
KM12 colon = test system: KM12 colon
UACC-257 melanoma = test system: UACC-257 melanoma
SF-295 CNS = test system: SF-295 CNS
MDA-MB-231 breast = test system: MDA-MB-231 breast
A549 NSCLC = test system: A549 NSCLC
OVCAR-3 ovarian = test system: OVCAR-3 ovarian
SR leukemia = test system: SR leukemia
OVCAR-4 ovarian = test system: OVCAR-4 ovarian
IGROV1 ovarian = test system: IGROV1 ovarian
NCI-H460 lung = test system: NCI-H460 lung
SK-MEL-5 melanoma = test system: SK-MEL-5 melanoma
RPMI-8226 leukemia = test system: RPMI-8226 leukemia
SNB-75 CNS = test system: SNB-75 CNS
DU-145 prostate = test system: DU-145 prostate
SNB-19 CNS = test system: SNB-19 CNS
HL-60(TB) leukemia = test system: HL-60(TB) leukemia
U251 CNS = test system: U251 CNS
SN12C renal = test system: SN12C renal
BT-549 breast = test system: BT-549 breast
OVCAR-8 ovarian = test system: OVCAR-8 ovarian
CAKI-1 renal = test system: CAKI-1 renal
NCI/ADR-RES ovarian = test system: NCI/ADR-RES ovarian
HT29 colon = test system: HT29 colon
MDA-MB-435 = test system: MDA-MB-435
NCI-H226 lung = test system: NCI-H226 lung
SW-620 colon = test system: SW-620 colon
PC-3 prostate = test system: PC-3 prostate
SF-539 CNS = test system: SF-539 CNS
SK-MEL-28 melanoma = test system: SK-MEL-28 melanoma
RXF 393 renal = test system: RXF 393 renal
SK-OV-3 ovarian = test system: SK-OV-3 ovarian
SF-268 CNS = test system: SF-268 CNS
786-0 renal = test system: 786-0 renal
HOP-92 NSCLC = test system: HOP-92 NSCLC
TK-10 renal = test system: TK-10 renal
COLO 205 colon = test system: COLO 205 colon
MALME-3M melanoma = test system: MALME-3M melanoma
NCI-H522 lung = test system: NCI-H522 lung
T-47D breast = test system: T-47D breast
M14 melanoma = test system: M14 melanoma
MCF7 breast = test system: MCF7 breast
ACHN renal = test system: ACHN renal
OVCAR-5 ovarian = test system: OVCAR-5 ovarian
SK-MEL-2 melanoma = test system: SK-MEL-2 melanoma
A498 renal = test system: A498 renal
MOLT-4 leukemia = test system: MOLT-4 leukemia
K-562 leukemia = test system: K-562 leukemia
EKVX NSCLC = test system: EKVX NSCLC
NCI-H23 lung = test system: NCI-H23 lung
UO-31 renal = test system: UO-31 renal
HOP-62 NSCLC = test system: HOP-62 NSCLC
HCT-116 colon = test system: HCT-116 colon
HS 578T breast = test system: HS 578T breast
HCT-15 colon = test system: HCT-15 colon
HCC-2998 colon = test system: HCC-2998 colon
MDA-N = test system: MDA-N

In the case of `Cc1cccc(N=C/C=C(\Cl)c2ccc3ccccc3c2)c1`, the TGI (UACC-62 melanoma) is reported as 32.5 µM, the TGI (LOX IMVI melanoma) is reported as 9.27 µM and the TGI (KM12 colon) is reported as 41 µM. The TGI (UACC-257 melanoma) was 39.1 µM, the TGI (SF-295 CNS) was greater than 58.7 µM and the TGI (MDA-MB-231 breast) was 33.6 µM. It also gave a TGI (A549 NSCLC) greater than 100 µM, a TGI (OVCAR-3 ovarian) of 32.3 µM and a TGI (SR leukemia) of 8.24 µM. For the same molecule, the TGI (OVCAR-4 ovarian) was 41.2 µM, the TGI (IGROV1 ovarian) was greater than 60.3 µM and the TGI (NCI-H460 lung) was greater than 80.9 µM. The TGI (SK-MEL-5 melanoma) was 37.1 µM, the TGI (RPMI-8226 leukemia) was 29 µM and the TGI (SNB-75 CNS) was greater than 58.2 µM. For the same molecule, the TGI (DU-145 prostate) was 36.9 µM, the TGI (SNB-19 CNS) was 33 µM and the TGI (HL-60(TB) leukemia) was 38.5 µM. For the same molecule, the TGI (U251 CNS) was 31 µM, the TGI (SN12C renal) was 41.1 µM and the TGI (BT-549 breast) was 44.5 µM. For the same molecule, the TGI (OVCAR-8 ovarian) was 43 µM, the TGI (CAKI-1 renal) was 34.5 µM and the TGI (NCI/ADR-RES ovarian) was 47.7 µM. It also gave a TGI (HT29 colon) greater than 62.7 µM, a TGI (MDA-MB-435) of 39.8 µM and a TGI (NCI-H226 lung) greater than 69.3 µM. For the same molecule, the TGI (SW-620 colon) was greater than 66.5 µM, the TGI (PC-3 prostate) was 53.1 µM and the TGI (SF-539 CNS) was 40.7 µM. For the same molecule, the TGI (SK-MEL-28 melanoma) was 63.6 µM, the TGI (RXF 393 renal) was greater than 56.9 µM and the TGI (SK-OV-3 ovarian) was 53.5 µM. It also gave a TGI (SF-268 CNS) greater than 79.4 µM, a TGI (786-0 renal) of 34.9 µM and a TGI (HOP-92 NSCLC) greater than 62.3 µM. The TGI (TK-10 renal) was 50.8 µM, the TGI (COLO 205 colon) was 45.8 µM and the TGI (MALME-3M melanoma) was 36.4 µM. It also gave a TGI (NCI-H522 lung) greater than 78.7 µM, a TGI (T-47D breast) of 37.2 µM and a TGI (M14 melanoma) of 38 µM. The TGI (MCF7 breast) was greater than 95.9 µM, the TGI (ACHN renal) was 30.7 µM and the TGI (OVCAR-5 ovarian) was greater than 65.6 µM. For the same molecule, the TGI (SK-MEL-2 melanoma) was 68.9 µM, the TGI (A498 renal) was greater than 100 µM and the TGI (MOLT-4 leukemia) was 8.19 µM. The TGI (K-562 leukemia) was 40 µM, the TGI (EKVX NSCLC) was greater than 100 µM and the TGI (NCI-H23 lung) was 34.5 µM. For the same molecule, the TGI (UO-31 renal) was 34.4 µM, the TGI (HOP-62 NSCLC) was 35.4 µM and the TGI (HCT-116 colon) was 9.02 µM. For the same molecule, the TGI (HS 578T breast) was greater than 96.7 µM and the TGI (HCT-15 colon) was 28.2 µM.

`Cc1cc(C)nc(NCCC(O)(P(=O)(O)O)P(=O)(O)O)n1` gave a TGI (UACC-62 melanoma) greater than 100 µM, a TGI (LOX IMVI melanoma) greater than 100 µM and a TGI (KM12 colon) greater than 100 µM. For the same molecule, the TGI (UACC-257 melanoma) was greater than 100 µM, the TGI (SF-295 CNS) was greater than 100 µM and the TGI (MDA-MB-231 breast) was greater than 100 µM. For the same molecule, the TGI (A549 NSCLC) was greater than 100 µM, the TGI (OVCAR-3 ovarian) was greater than 100 µM and the TGI (IGROV1 ovarian) was greater than 100 µM. The TGI (NCI-H460 lung) was greater than 100 µM, the TGI (SK-MEL-5 melanoma) was greater than 100 µM and the TGI (DU-145 prostate) was greater than 100 µM. The TGI (SNB-19 CNS) was greater than 100 µM, the TGI (HCC-2998 colon) was greater than 100 µM and the TGI (BT-549 breast) was greater than 100 µM. It also gave a TGI (CAKI-1 renal) greater than 100 µM, a TGI (NCI/ADR-RES ovarian) greater than 100 µM and a TGI (NCI-H226 lung) greater than 100 µM. It also gave a TGI (PC-3 prostate) greater than 100 µM, a TGI (MDA-N) greater than 100 µM and a TGI (SF-539 CNS) greater than 100 µM. It also gave a TGI (RXF 393 renal) greater than 100 µM, a TGI (SK-OV-3 ovarian) greater than 100 µM and a TGI (SF-268 CNS) greater than 100 µM. The TGI (786-0 renal) was greater than 100 µM, the TGI (TK-10 renal) was greater than 100 µM and the TGI (COLO 205 colon) was greater than 100 µM. It also gave a TGI (MALME-3M melanoma) greater than 100 µM, a TGI (NCI-H522 lung) greater than 100 µM and a TGI (M14 melanoma) greater than 100 µM. The TGI (MCF7 breast) was greater than 100 µM, the TGI (ACHN renal) was greater than 100 µM and the TGI (OVCAR-5 ovarian) was greater than 100 µM. For the same molecule, the TGI (EKVX NSCLC) was greater than 100 µM, the TGI (NCI-H23 lung) was greater than 100 µM and the TGI (UO-31 renal) was greater than 100 µM. For the same molecule, the TGI (HOP-62 NSCLC) was greater than 100 µM, the TGI (HCT-116 colon) was greater than 100 µM and the TGI (HCT-15 colon) was greater than 100 µM.
